# Key:
# A549 cells [1] = experiment: acridine orange staining of acidic vesicular organelles (microscopy and FACS); type: cell-based, human; conditions: for proportion of acridine orange-positive cells: 24 h, IR alone 12.5%
# Description: Autophagic cell death has been recognized as programmed cell death type II, it has been detected in a variety of cancer cells treated with radiation or chemotherapy. Therefore, it had been examined whether IR treatment combined with berberine induced autophagic cell death in A549 cells by electron microscopic analysis (FIG. 4A). Cells were harvested by trypsinization, and fixed with 2% glutaraldehyde, 4% paraformaldehyde and 1% tannic acid in 0.1 mol/L cacodylate buffer, pH 7.4, for 25 h. The cells were stained with an osmium-thiocarbohydrazide-osmium (OTO). After staining, the cells were dehydrated in a graded series of 70% to 100% EtOH and then immersed serially with 1:1 hexamethyldisilazane and absolute ethanol. One micrometer thin sections were cut, and the gels were coated with 500 Å of gold in a JEOL Vacuum sputter coater and viewed in a JEOL […] electron microscope with scanning attachment (JEOL, Tokyo, Japan). […] Autophagy is characterized by the development of AVOs, which is measured by vital staining of acridine orange. Acridine orange (Polysciences, Warrington, Pa.) was added to cells at a final concentration of 1 μg/mL for a period of 15 min. Pictures were taken with a fluorescent microscope (Nikon TE-300) equipped with a 490-nm band-pass blue excitation filters, a 500-nm dichroic mirror, and a 515-nm-long pass-barrier filter. To quantitate acidic vesicular organelles, Stained cells were collected for the FACScan (Becton Dickinson, San Jose, Calif.) using CellQuest software (Becton Dickinson). Acridine orange-positive cells with bright red fluorescence were detected among A549 cells 24 h after co-treated with berberine and IR (6 Gy), whereas they were sparse among non-treated cells or irradiated cells (FIG. 4B). […] FIG. 4C).
# A549 cells [2] = experiment: electron microscopic analysis of autophagy; type: cell-based, human; conditions: IR and 5.0 μM berberine, 24 h
# Description: Autophagic cell death has been recognized as programmed cell death type II, it has been detected in a variety of cancer cells treated with radiation or chemotherapy. Therefore, it had been examined whether IR treatment combined with berberine induced autophagic cell death in A549 cells by electron microscopic analysis (FIG. 4A). Cells were harvested by trypsinization, and fixed with 2% glutaraldehyde, 4% paraformaldehyde and 1% tannic acid in 0.1 mol/L cacodylate buffer, pH 7.4, for 25 h. The cells were stained with an osmium-thiocarbohydrazide-osmium (OTO). After staining, the cells were dehydrated in a graded series of 70% to 100% EtOH and then immersed serially with 1:1 hexamethyldisilazane and absolute ethanol. […] Autophagy is characterized by the development of AVOs, which is measured by vital staining of acridine orange. […] To quantitate acidic vesicular organelles, Stained cells were collected for the FACScan (Becton Dickinson, San Jose, Calif.) using CellQuest software (Becton Dickinson). Acridine orange-positive cells with bright red fluorescence were detected among A549 cells 24 h after co-treated with berberine and IR (6 Gy), whereas they were sparse among non-treated cells or irradiated cells (FIG. 4B). […]
smiles,measurement,setting,value
"COc1ccc2cc3[n+](cc2c1OC)CCc1cc2c(cc1-3)OCO2 [berberine, Berberine]",proportion of acridine orange-positive cells,A549 cells [1]; 6 Gy irradiation combined with 5.0 μM berberine,50.3%
same,proportion of acridine orange-positive cells,A549 cells [1]; 6 Gy irradiation combined with 10 μM berberine,62.6%
same,acridine orange-positive cells with bright red fluorescence (microscopy),A549 cells [1]; 24 h after co-treatment with berberine and IR (6 Gy),detected
same,autophagic vacuoles by electron microscopy,A549 cells [2],Numerous empty vacuoles and autophagic vacuoles
